Measured values reported in ChEMBL document CHEMBL6074649, “An insight into recent developments in imidazole based heterocyclic compounds as anticancer agents: Synthesis, SARs, and mechanism of actions” (Eur J Med Chem, 2024).

Key:
[1] = test system: NCI-H1299; assay: Anticancer activity against human NCI-H1299 cells at 100 uM relative to control; assay type: functional
[2] = test system: PC-3; assay: Anticancer activity against human PC-3 cells at 100 uM relative to control; assay type: functional
[3] = test system: HCT-116; assay: Anticancer activity against human HCT-116 cells at 100 uM relative to control; assay type: functional
[4] = test system: MG-63; assay: Antiproliferative activity against human MG-63 cells; assay type: functional, cell-based
[5] = test system: A549; assay: Antiproliferative activity against human A549 cells assessed as reduction in cell growth; assay type: functional, cell-based
[6] = test system: MCF7; assay: Antiproliferative activity against human MCF7 cells; assay type: functional, cell-based
[7] = Antiproliferative activity against HEK293 cells; assay type: toxicity, cell-based; details: human
[8] = test system: SiHa; assay: Antiproliferative activity against human SiHa cells; assay type: functional, cell-based
[9] = test system: A549; assay: Antiproliferative activity against human A549 cells; assay type: functional, cell-based
[10] = Antiproliferative activity against human BJ cells; assay type: toxicity, cell-based
[11] = test system: A549; assay: Cytotoxicity against human A549 cells; assay type: functional, cell-based
[12] = Cytotoxicity against human MCF-10A cells; assay type: toxicity, cell-based
[13] = test system: MCF7; assay: Cytotoxicity against human MCF7 cells; assay type: functional, cell-based
[14] = test system: HeLa; assay: Cytotoxicity against human HeLa cells; assay type: functional, cell-based
[15] = test system: B16-F10; assay: Cytotoxicity against mouse B16-F10 cells; assay type: functional, cell-based
[16] = Cytotoxicity against mouse EMT6/AR1 cells; assay type: functional, cell-based
[17] = Cytotoxicity against mouse L929 cells; assay type: toxicity, cell-based
[18] = Antiproliferative activity against human IGR-39 cells assessed as reduction in cell viability after 48 hrs by SRB assay; assay type: functional, cell-based; details: IGR-39, 48 h
[19] = test system: MDA-MB-231; assay: Antiproliferative activity against human MDA-MB-231 cells assessed as reduction in cell viability after 48 hrs by SRB assay; assay type: functional, cell-based; details: MDA-MB-231, 48 h

Q: With `O=C(CS(=O)(=O)NS(=O)(=O)CC(=O)Nc1nc(-c2ccc(Cl)cc2)c[nH]1)Nc1nc(-c2ccc(Cl)cc2)c[nH]1` as the compound, how does the inhibition at 100 µM [1] read?
A: 21.4%

Q: And the inhibition at 100 µM [2]?
A: 32.1%

Q: What about the inhibition at 100 µM [3] of the same compound?
A: 41.4%

Q: With `COc1ccc2[nH]c(=O)c(-c3nc(-c4ccccc4)c(-c4ccccc4)[nH]3)cc2c1` as the compound, how does the IC50 [4] read?
A: 62 µM

Q: And the IC50 [5]?
A: 39.4 µM

Q: What about the IC50 [6] of the same compound?
A: 50.1 µM

Q: What about the IC50 [7] of the same compound?
A: 86.5 µM

Q: What does the source list for `CN1CCN(c2ccc(-c3nc(-c4ccc(N5C(=O)c6cccc7c(N8CCN(C)CC8)ccc(c67)C5=O)cc4)[nH]c3-c3ccc(N4CCN(C)CC4)cc3)cc2)CC1`?
A: IC50 [8]: 5.4 µM; IC50 [9]: 6.5 µM; IC50 [10]: 13.3 µM

Q: For `COc1cc(C(=O)c2[nH]c(N)nc2-c2cccs2)cc(OC)c1OC`, which IC50 [11] is on record?
A: 0.112 µM

Q: What about the IC50 [12] of the same compound?
A: 1.89 µM

Q: What about the IC50 [13] of the same compound?
A: 0.121 µM

Q: And the IC50 [14]?
A: 0.036 µM

Q: What about the IC50 [15] of the same compound?
A: 0.416 µM

Q: What about the IC50 [16] of the same compound?
A: 2.43 µM

Q: And the IC50 [17]?
A: 1.66 µM

Q: Which results are given for `CCn1c(-c2ccc(F)cc2)cn(-c2cccc(S(N)(=O)=O)c2)c1=O`?
A: EC50 [18]: 27.8 µM; EC50 [19]: 20.5 µM
